Data from ChEMBL document CHEMBL4483862, “Open-source discovery of chemical leads for next-generation chemoprotective antimalarials” (2018).

System: Plasmodium berghei
Assay: Luciferase/luciferin-expressing antifolate-resistant parasites were used to infect a culture of HepG2 cells that were pre-incubated with compounds. Infected hepatocytes emit light due to the luciferase reaction. Assay results are presented as the percent inhibition of light emission compared to control. […]
Type: functional
Settings: sporozoite; for IC90: read-out: LUCIFERASE INFECTION ASSAY - IC90
[1] = read-out: LUCIFERASE INFECTION ASSAY - IC50

Compound | IC90 | IC50 [1] | other results
NC(=NNC(=S)Nc1ccccc1C(F)(F)F)c1ccccn1 | 2.78 µM |  | IC50 (FFLUC_HILL_SLOPE 21.9, FFLUC_R_SQUARED 0.597, HEPG2TOX_HILL_SLOPE 0.969, HEPG2TOX_R_SQUARED 0.909, PBLUC_HILL_SLOPE 1.81, PBLUC_R_SQUARED 0.836, read-out: LUCIFERASE INFECTION ASSAY - IC50): 0.826 µM
Cc1noc(C)c1C(=O)Nc1nc(-c2c[nH]c3ccccc23)cs1 | > 10 µM | > 10 µM | 
COc1ccc(Br)cc1/C=C/C(=O)c1ccc(OCC#N)cc1 | > 10 µM |  | IC50 (PBLUC_HILL_SLOPE 7.84, PBLUC_R_SQUARED 0.11, read-out: LUCIFERASE INFECTION ASSAY - IC50): 9.52 µM
O=C(Nc1cc(-c2cccs2)nn1-c1ccc(I)cc1)C1CCC1 | > 7.34 µM |  | IC50 (PBLUC_HILL_SLOPE 12.7, PBLUC_R_SQUARED 0.261, read-out: LUCIFERASE INFECTION ASSAY - IC50): 6.21 µM
O=C1OC(C=NC23CC4CC(CC(C4)C2)C3)c2ccccc21 (stereo not drawn) | > 11.2 µM |  | IC50 (PBLUC_HILL_SLOPE 9.77, PBLUC_R_SQUARED 0.255, read-out: LUCIFERASE INFECTION ASSAY - IC50): 9.81 µM
O=C(NC1CC1)c1csc(C(O)c2cccc(Cl)c2)n1 (stereo not drawn) | > 10 µM | 3.36 µM | 
O=C(Nc1ccc(SC(F)(F)F)cc1)Nc1ccc(Oc2cccc(C(F)(F)F)c2)nc1 | 0.806 µM |  | IC50 (HEPG2TOX_HILL_SLOPE 4.03, HEPG2TOX_R_SQUARED 0.946, PBLUC_HILL_SLOPE 9.59, PBLUC_R_SQUARED 0.631, read-out: LUCIFERASE INFECTION ASSAY - IC50): 0.641 µM
CC(Sc1nc2ncccn2n1)C(=O)N1c2ccccc2CC1C (stereo not drawn) | > 10 µM |  | IC50 (FFLUC_HILL_SLOPE 10.4, FFLUC_R_SQUARED 0.228, read-out: LUCIFERASE INFECTION ASSAY - IC50): > 10 µM
N#Cc1c(N2CCCCCC2)nc(N)c2c(N)nc3c(c12)CC(=O)N3c1ccc(F)cc1 | 1.19 µM |  | IC50 (FFLUC_HILL_SLOPE 141, FFLUC_R_SQUARED 0.168, PBLUC_HILL_SLOPE 30.3, PBLUC_R_SQUARED 0.605, read-out: LUCIFERASE INFECTION ASSAY - IC50): 1.1 µM
Cc1cc(C)cc(N(CCC#N)C(=O)CSc2nc3cc(Cl)ccc3c(=O)n2Cc2ccccc2)c1 | > 10 µM | > 10 µM | 
O=C1C2=C(Nc3[nH]c(=O)[nH]c(=O)c3C2c2cccs2)c2ccccc21 (stereo not drawn) | > 10 µM |  | IC50 (HEPG2TOX_HILL_SLOPE 0.543, HEPG2TOX_R_SQUARED 0.515, read-out: LUCIFERASE INFECTION ASSAY - IC50): > 10 µM
Cc1ccccc1Sc1ccc(NC(=O)c2ccc(F)cc2)cc1C#N | > 9.11 µM | > 9.11 µM | 
CC(C)c1ccccc1N(C(=O)c1cc2ccccc2o1)c1nc2ccccc2s1 | > 10 µM |  | IC50 (HEPG2TOX_HILL_SLOPE 3.13, HEPG2TOX_R_SQUARED 0.898, read-out: LUCIFERASE INFECTION ASSAY - IC50): > 10 µM
Cc1cc(C(=O)OCC(=O)c2ccc[nH]2)c2c(C)noc2n1 | > 10 µM | > 10 µM | 
CCN1CCC(N(C)c2ccc(S(=O)(=O)N3CCCCCC3)cc2[N+](=O)[O-])CC1 | > 10 µM |  | IC50 (PBLUC_HILL_SLOPE 3.35, PBLUC_R_SQUARED 0.446, read-out: LUCIFERASE INFECTION ASSAY - IC50): 6.31 µM
O=C(NC1CC1)c1ccc(-c2cnc3cnc(-c4cccs4)cn23)cc1 | > 9.16 µM |  | IC50 (PBLUC_HILL_SLOPE 1.19, PBLUC_R_SQUARED 0.184, read-out: LUCIFERASE INFECTION ASSAY - IC50): > 9.16 µM
CC(C)(C)OC(=O)N1CCc2nc(NC(=O)c3ccc4nc[nH]c4c3)sc2C1 | > 10 µM |  | IC50 (HEPG2TOX_HILL_SLOPE 6.67, HEPG2TOX_R_SQUARED 0.917, read-out: LUCIFERASE INFECTION ASSAY - IC50): > 10 µM
CSc1ccccc1N1C(=O)C=CC1=O | 10.8 µM |  | IC50 (FFLUC_HILL_SLOPE 3.57, FFLUC_R_SQUARED 0.584, HEPG2TOX_HILL_SLOPE 8.7, HEPG2TOX_R_SQUARED 0.127, PBLUC_HILL_SLOPE 6.46, PBLUC_R_SQUARED 0.572, read-out: LUCIFERASE INFECTION ASSAY - IC50): 7.7 µM
COc1cc(C(O)c2cc(C(F)(F)F)cc(C(F)(F)F)c2)cc(OC)c1OC (stereo not drawn) | > 8.04 µM | 7.33 µM | 
Cc1ccc2nc(NC(=O)c3ccc(F)c(F)c3)c(C(=O)NC3CCCC3)n2c1 | 1.33 µM |  | IC50 (FFLUC_HILL_SLOPE 15.6, FFLUC_R_SQUARED 0.751, HEPG2TOX_HILL_SLOPE 0.983, HEPG2TOX_R_SQUARED 0.896, PBLUC_HILL_SLOPE 4.3, PBLUC_R_SQUARED 0.744, read-out: LUCIFERASE INFECTION ASSAY - IC50): 0.8 µM
COc1ccccc1CNc1nc(NCc2ccccc2SC)c2sccc2n1 | > 7.81 µM | > 7.81 µM | 
CCc1ccc(CN(C)C(C)C(=O)Nc2cc(S(=O)(=O)N(C)C)ccc2C)cc1 (stereo not drawn) | > 10 µM | 8.31 µM | 

Compound | IC90 | IC50 [1] | other results
Cn1cnnc1-c1cccc(NC(=O)c2ccc(=O)n(Cc3ccccc3)n2)c1 | > 10 µM | > 10 µM | 
Cc1oc2[nH]cnc(=O)c2c1C(=O)Nc1ccccc1Cc1ccccc1 | > 10 µM |  | IC50 (FFLUC_HILL_SLOPE 0.892, FFLUC_R_SQUARED 0.572, PBLUC_HILL_SLOPE 0.52, PBLUC_R_SQUARED 0.732, read-out: LUCIFERASE INFECTION ASSAY - IC50): 2.73 µM
O=C(Cn1cc(C(=O)c2ccccc2)c2ccccc21)Nc1ccc(F)cc1 | > 8.86 µM |  | IC50 (PBLUC_HILL_SLOPE 1.46, PBLUC_R_SQUARED 0.555, read-out: LUCIFERASE INFECTION ASSAY - IC50): 3.31 µM
CC(=O)Nc1cccc(-c2cnc3ccc(-c4ccc(S(C)(=O)=O)cc4)nn23)c1 | 9.62 µM |  | IC50 (HEPG2TOX_HILL_SLOPE 0.982, HEPG2TOX_R_SQUARED 0.906, PBLUC_HILL_SLOPE 3.7, PBLUC_R_SQUARED 0.22, read-out: LUCIFERASE INFECTION ASSAY - IC50): 5.31 µM
O=C1/C(=C/c2ccc(-n3cncn3)c(F)c2)CSc2ccccc21 | > 10 µM | > 10 µM | 
CN(Cc1nc2ccccc2s1)C(=O)c1cc(-c2ccccc2)c(N2CCOCC2)s1 | > 10 µM | > 10 µM | 
Cn1cc(/C=C/C(=O)Nc2ncc(Cc3ccccc3)s2)cn1 | 2.15 µM |  | IC50 (HEPG2TOX_HILL_SLOPE 0.97, HEPG2TOX_R_SQUARED 0.894, PBLUC_HILL_SLOPE 1.67, PBLUC_R_SQUARED 0.671, read-out: LUCIFERASE INFECTION ASSAY - IC50): 0.578 µM
CC(=O)c1ccc(-c2ccc(C(=O)N3CCCc4ccccc43)o2)cc1 | 0.942 µM |  | IC50 (PBLUC_HILL_SLOPE 1.77, PBLUC_R_SQUARED 0.773, read-out: LUCIFERASE INFECTION ASSAY - IC50): 0.272 µM
c1ccc(CN2CCOCC2)c(CNc2ncnc3sccc23)c1 | > 10 µM |  | IC50 (HEPG2TOX_HILL_SLOPE 7.26, HEPG2TOX_R_SQUARED 0.756, read-out: LUCIFERASE INFECTION ASSAY - IC50): > 10 µM
CCCCn1c(N)c(N(C)CC(=O)Nc2scc(-c3ccccc3)c2C(=O)OCC)c(=O)[nH]c1=O | 8.26 µM |  | IC50 (FFLUC_HILL_SLOPE 12.3, FFLUC_R_SQUARED 0.419, PBLUC_HILL_SLOPE 4.64, PBLUC_R_SQUARED 0.375, read-out: LUCIFERASE INFECTION ASSAY - IC50): 5.15 µM
O=C(CSc1nnc(Nc2ccc(Oc3ccccc3)cc2)s1)c1cccs1 | 4.38 µM |  | IC50 (FFLUC_HILL_SLOPE 2.69, FFLUC_R_SQUARED 0.808, PBLUC_HILL_SLOPE 3.49, PBLUC_R_SQUARED 0.557, read-out: LUCIFERASE INFECTION ASSAY - IC50): 2.33 µM
CNc1snc(C)c1C(=O)NC(C)c1ccc(C(C)C)cc1 (stereo not drawn) | 2.91 µM |  | IC50 (HEPG2TOX_HILL_SLOPE 0.648, HEPG2TOX_R_SQUARED 0.871, PBLUC_HILL_SLOPE 1.92, PBLUC_R_SQUARED 0.818, read-out: LUCIFERASE INFECTION ASSAY - IC50): 0.93 µM
C=CCn1c(SC(C(=O)c2c[nH]c3ccccc23)c2ccccc2)nc2ccccc2c1=O (stereo not drawn) | > 10 µM | 8.28 µM | 
Cc1cccc(C)c1NC(=O)N1[C@@H]2CC[C@@H](C2)[C@H]1c1nc2c(OCCC3CCCCC3)cccc2[nH]1 | > 10 µM |  | IC50 (FFLUC_HILL_SLOPE 3.83, FFLUC_R_SQUARED 0.822, PBLUC_HILL_SLOPE 12.1, PBLUC_R_SQUARED 0.296, read-out: LUCIFERASE INFECTION ASSAY - IC50): 9.48 µM
O=C(Nc1ncc(Cc2cccc(Cl)c2Cl)s1)c1ccncc1 | 7.55 µM | 3.27 µM | 
Cc1c(C(=O)Nc2ccc(Oc3ccccc3)cc2)[nH]c2c1C(=O)CCC2 | > 10 µM |  | IC50 (PBLUC_HILL_SLOPE 16.6, PBLUC_R_SQUARED 0.701, read-out: LUCIFERASE INFECTION ASSAY - IC50): 9.52 µM
O=C(NCCCC(=O)N1CCC(c2ccc(O)cc2)CC1)c1ccsc1 | > 10 µM | > 10 µM | 
FC(F)(F)c1cc(NCc2ccccc2Cl)nc(-c2ccccn2)n1 | 6.29 µM |  | IC50 (PBLUC_HILL_SLOPE 3.68, PBLUC_R_SQUARED 0.577, read-out: LUCIFERASE INFECTION ASSAY - IC50): 3.46 µM
CCOc1cccc(-c2cn3c(-c4ccsc4)cnc3cn2)c1 | 9.69 µM | 5.53 µM | 
O=C(/C=c1/[nH]c(=O)/c(=C/c2ccc(-c3ccccc3F)s2)s1)c1ccncc1 | > 10 µM |  | IC50 (FFLUC_HILL_SLOPE 1.61, FFLUC_R_SQUARED 0.374, read-out: LUCIFERASE INFECTION ASSAY - IC50): > 10 µM
Cc1[nH]c2ccc(C(=O)Nc3nc(CN4CCCC(C)C4)cs3)cc2c1C (stereo not drawn) | > 10 µM | > 10 µM | 
COc1cccc(Cn2nc(C(=O)NC3CC3)c3c2CCN(C(=O)c2cc4ccccc4[nH]2)C3)c1 | > 7.03 µM | > 7.03 µM | 
